The results in this text go back to patent publication US9765037B2, “Compositions and methods for treating toxoplasmosis, cryptosporidiosis, and other apicomplexan protozoan related diseases” (University of Washington Through its Center for …, priority 2010, dated 2017).

Values after ≈ are worked out from the molar mass of the structure shown. Read-outs that look alike come from different tables or passages of the source.

As usually defined, the IC50 is the concentration that inhibits the measured activity by half. In general, EC50 refers to the concentration that produces a half-maximal response. A word on the solubility: it is the dissolved amount per volume that the medium holds. What is called AUC is concentration integrated over time. Low readings indicate less exposure, high ones more exposure. One may read the Cmax as the peak of the concentration-time curve. Broadly, the Tmax is the time at which the peak concentration occurs.

Data set [1] has as its system colorectal carcinoma (HC 2998). The experiment in a line: Growth inhibition of human cell line HC 2998. As to conditions: 10 μM.
A further data set has as its system glioma derived (SF539). The data set is described as follows: Growth inhibition of human cell line SF539. Conditions: 10 μM.
The next data set deals with HckKD (Homo sapiens (Human), UniProt P08631). The data set is described as follows: Tyrosine kinase IC50, HckKD. Type of data set: biochemical. As to conditions: Table 9.
Data set [2] deals with human promyelocytic leukemia (HL-60). The data set is described as follows: Growth inhibition of human cell line HL-60.
Data set [3] deals with human lymphocyte (CRL8155). The data set is described as follows: Growth inhibition of human cell line CRL8155.
A further data set concerns the target PfCDPK1 (Plasmodium falciparum (isolate 3D7), UniProt P62344). The data set is described as follows: biochemical.
A further data set addresses PfCDPK4 (Plasmodium falciparum (isolate 3D7), UniProt Q8IBS5). The experiment in a line: biochemical.
A further data set deals with CpCDPK1 (Cryptosporidium parvum (strain Iowa II), UniProt A3FQ16). The data set is described as follows: biochemical. It counts as biochemical. As to conditions: read-out: CpCDPK1 IC50.
A short description of data set [4]: Solubility in buffers of various pH. It counts as physicochemical. As to conditions: buffer.
Another data set deals with human fibroblast. The data set is described as follows: Human fibroblast replication / cytotoxicity (Alamar blue). It counts as cell-based. In general terms: Resazurin is reduced to fluorescent resorufin, in cell work by metabolically active cells.
A short description of data set [5]: Blood levels after oral gavage dosing of mice (LC-MS). As to conditions: mouse, in vivo, po.
The mark [6] stands for this setting: pH 6.5, aqueous buffer, read-out: Experimental Solubility pH 6.5.

Chain of HckKD (P08631 262-515): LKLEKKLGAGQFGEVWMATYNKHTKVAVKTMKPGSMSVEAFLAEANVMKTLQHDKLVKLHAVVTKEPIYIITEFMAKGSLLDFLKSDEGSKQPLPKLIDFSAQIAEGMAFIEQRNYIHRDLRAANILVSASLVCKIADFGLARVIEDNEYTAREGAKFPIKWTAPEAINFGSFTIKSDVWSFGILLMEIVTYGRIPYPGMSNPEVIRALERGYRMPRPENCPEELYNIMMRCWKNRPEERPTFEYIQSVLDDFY
Chain of CpCDPK1 (A3FQ16 1-538): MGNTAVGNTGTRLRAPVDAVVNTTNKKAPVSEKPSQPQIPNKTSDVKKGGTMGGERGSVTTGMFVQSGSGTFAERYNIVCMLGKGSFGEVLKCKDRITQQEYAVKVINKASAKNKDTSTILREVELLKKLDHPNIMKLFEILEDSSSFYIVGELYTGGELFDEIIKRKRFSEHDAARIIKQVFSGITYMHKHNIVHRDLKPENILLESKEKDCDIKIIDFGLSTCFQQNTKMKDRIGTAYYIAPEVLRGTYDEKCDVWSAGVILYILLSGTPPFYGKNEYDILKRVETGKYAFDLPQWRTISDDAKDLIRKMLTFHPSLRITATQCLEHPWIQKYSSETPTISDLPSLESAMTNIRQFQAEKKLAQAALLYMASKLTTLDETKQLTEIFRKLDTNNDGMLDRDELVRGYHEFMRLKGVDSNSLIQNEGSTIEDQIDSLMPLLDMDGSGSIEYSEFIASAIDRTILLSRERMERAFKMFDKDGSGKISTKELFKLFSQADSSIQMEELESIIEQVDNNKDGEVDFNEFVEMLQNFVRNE

With `CC(C)n1nc(Cc2cccc3ccccc23)c2c(N)ncnc21` [Compound 3, 1-isopropyl-3-(naphthalen-1-ylmethyl)-1H-pyrazolo[3,4-d]pyrimidin-4-amine], the “Cell Toxicity HCC2998, % at 10 μM” value in data set [1] is reported as below 30% at 10 μM. Moreover, the “Cell Toxicity SF539, % at 10 μM” value in the data set on glioma derived (SF539) is recorded as below 30% at 10 μM. This compound also returned an IC50 against HckKD of 1.38 µM. Also, in [2], the “Cell Toxicity HL60, % at 10 μM” value was below 30% at 10 μM. Besides, the “Cell Toxicity CRL8155, % at 10 μM” value in [3] was below 30% at 10 μM.

In the case of `CCOc1ccc2cc(-c3nn(C(C)C)c4ncnc(N)c34)ccc2c1` [Compound 7r, 3-(6-ethoxynaphthalen-2-yl)-1-isopropyl-1H-pyrazolo[3,4-d]pyrimidin-4-amine], the concentration for a half-maximal effect (EC50) on PfCDPK1 worked out at 1290 nM; at PfCDPK4, 429 nM. Further, the “Cell Toxicity HCC2998, % at 10 μM” value in [1] is below 30% at 10 μM. Also, in the data set on glioma derived (SF539), the “Cell Toxicity SF539, % at 10 μM” value is below 30% at 10 μM. Further, the IC50 on HckKD worked out at 0.218 µM; on CpCDPK1, 12 nM. Also, in data set [2], the “Cell Toxicity HL60, % at 10 μM” value is on record as below 30% at 10 μM. The “Cell Toxicity CRL8155, % at 10 μM” value in data set [3] was below 30% at 10 μM. Further, the solubility in data set [4] (setting [6]) is 12 µM (≈ 4.17 µg/mL).

In the case of `CC(C)Oc1ccc2cc(-c3nn(C(C)C)c4ncnc(N)c34)ccc2c1` [Compound 11, 3-(6-isopropoxynaphthalen-2-yl)-1-isopropyl-1H-pyrazolo[3,4-d]pyrimidin-4-amine], the values for the concentration giving a half-maximal response (EC50) on PfCDPK1 and at PfCDPK4 were 373 nM and 549 nM, respectively. In data set [1], the “Cell Toxicity HCC2998, % at 10 μM” value is given as below 30% at 10 μM. Besides, the “Cell Toxicity SF539, % at 10 μM” value in the data set with glioma derived (SF539) was below 30% at 10 μM. This compound also returned an IC50 on HckKD of 0.541 µM. For the same compound, the “Cell Toxicity HL60, % at 10 μM” value in data set [2] was below 30% at 10 μM. Besides, the “Cell Toxicity CRL8155, % at 10 μM” value in data set [3] is below 30% at 10 μM.

`CCCOc1ccc2cc(-c3nn(C(C)C)c4ncnc(N)c34)ccc2c1` [Compound 12, 1-isopropyl-3-(6-propoxynaphthalen-2-yl)-1H-pyrazolo[3,4-d]pyrimidin-4-amine]: the EC50 is 659 nM on PfCDPK1 and 526 nM at PfCDPK4. In addition, in data set [1], the “Cell Toxicity HCC2998, % at 10 μM” value was below 30% at 10 μM. The “Cell Toxicity SF539, % at 10 μM” value in the data set with glioma derived (SF539) is listed as below 30% at 10 μM. At HckKD, this compound yielded an IC50 of 0.244 µM. In addition, the “Cell Toxicity HL60, % at 10 μM” value in data set [2] is below 30% at 10 μM. In addition, the “Cell Toxicity CRL8155, % at 10 μM” value in data set [3] is given as below 30% at 10 μM.

For the compound `CCCOc1ccc2cc(-c3nn(CC4CCNCC4)c4ncnc(N)c34)ccc2c1` [Compound 33, 1-(piperidin-4-ylmethyl)-3-(6-propoxynaphthalen-2-yl)-1H-pyrazolo[3,4-d]pyrimidin-4-amine], the EC50 at PfCDPK1 worked out at 196 nM; on PfCDPK4, 21.1 nM. Moreover, the “Cell Toxicity HCC2998, % at 10 μM” value in [1] was 30% at 10 μM. Besides, in the data set with glioma derived (SF539), the “Cell Toxicity SF539, % at 10 μM” value is below 30% at 10 μM. At HckKD, the IC50 is above 10 µM. In addition, the “Cell Toxicity HL60, % at 10 μM” value in data set [2] is below 30% at 10 μM. Besides, the “Cell Toxicity CRL8155, % at 10 μM” value in [3] is below 30% at 10 μM. Also, in the data set on human fibroblast, the “Observed HFF Toxicity (T at concentration)” value (from here on “Observed HFF Toxicity”) is on record as “T at 100 μM”.

Turning to `Nc1ncnc2c1c(-c1ccc3cc(OCc4ccccc4Cl)ccc3c1)nn2CC1CCNCC1` [Compound 37, 3-(6-(2-chlorobenzyloxy)naphthalen-2-yl)-1-(piperidin-4-ylmethyl)-1H-pyrazolo[3,4-d]pyrimidin-4-amine], the EC50 on PfCDPK1 was 95.8 nM; on PfCDPK4, 71.6 nM. Besides, the “Observed HFF Toxicity” value with human fibroblast is reported as “T at 100 μM”.

As for `Nc1ncnc2c1c(-c1ccc3cc(OCc4cccc(Cl)c4)ccc3c1)nn2CC1CCNCC1` [Compound 38, 3-(6-(3-chlorobenzyloxy)naphthalen-2-yl)-1-(piperidin-4-ylmethyl)-1H-pyrazolo[3,4-d]pyrimidin-4-amien], the EC50 worked out at 45.2 nM at PfCDPK1 and 34.9 nM on PfCDPK4. Further, the “Cell Toxicity HL60, % at 10 μM” value in data set [2] is given as below 30% at 10 μM. For the same compound, the “Cell Toxicity HL60, % at 30 μM” value in data set [2] (30 μM) came out at 98% at 30 μM. Also, in [3], the “Cell Toxicity CRL8155, % at 10 μM” value is given as below 30% at 10 μM. Moreover, the “Cell Toxicity CRL8155, % at 30 μM” value in data set [3] (30 μM) was 98% at 30 μM. Further, the “Observed HFF Toxicity” value in the data set with human fibroblast is on record as “T at 100 μM”.

As to `CC(C)n1nc(-c2ccc3cc(OCc4ccccc4)ccc3c2)c2c(N)ncnc21` [Compound 40, 3-(6-(benzyloxy)naphthalen-2-yl)-1-isopropyl-1H-pyrazolo[3,4-d]pyrimidin-4-amine], the EC50 at PfCDPK1 came out at 96.3 nM; on PfCDPK4, 514 nM. Further, the “Observed HFF Toxicity” value in the data set on human fibroblast is “T at 100 μM”.

At PfCDPK1, `C=CCOc1ccc2cc(-c3nn(C(C)C)c4ncnc(N)c34)ccc2c1` [Compound 41, 3-(6-(allyloxy)naphthalen-2-yl)-1-isopropyl-1H-pyrazolo[3,4-d]pyrimidin-4-amine] yielded an EC50 of 36.3 nM. Also, it took 19.2 nM to reach a half-maximal effect on PfCDPK4 (EC50). Also, in data set [5], the AUC is 52.9 µM·h, the Cmax was found to be 13.6 µM and the Tmax is 1.67 h. In data set [2], the “Cell Toxicity HL60, % at 10 μM” value is on record as below 30% at 10 μM. Besides, the “Cell Toxicity CRL8155, % at 10 μM” value in [3] is on record as below 30% at 10 μM. For the same compound, in the data set on human fibroblast, the “Observed HFF Toxicity” value was “T at 100 μM”. For the same compound, the solubility in [4] (setting [6]) worked out at 4.4 µM (≈ 1.58 µg/mL).

As for `CCCCOc1ccc2cc(-c3nn(C(C)C)c4ncnc(N)c34)ccc2c1` [Compound 42, 3-(6-butoxynaphthalen-2-yl)-1-isopropyl-1H-pyrazolo[3,4-d]pyrimidin-4-amine], the EC50 on PfCDPK1 came to 156 nM. A half-maximal effect at PfCDPK4 (EC50) was put at 308 nM. Moreover, in data set [5], the exposure (AUC) was 40.6 µM·h, the highest level (Cmax) was 10.7 µM and the Tmax is 2.67 h. Also, in the data set on human fibroblast, the “Observed HFF Toxicity” value is “T at 100 μM”. Further, the solubility in data set [4] (setting [6]) was found to be 4.4 µM (≈ 1.65 µg/mL).

With `CC(C)COc1ccc2cc(-c3nn(CC4CCNCC4)c4ncnc(N)c34)ccc2c1` [Compound 44, 3-(6-isobutoxynaphthalen-2-yl)-1-(piperidin-4-ylmethyl)-1H-pyrazolo[3,4-d]pyrimidin-4-amine], the EC50 was found to be 182 nM at PfCDPK1 and 58.3 nM on PfCDPK4. The same compound gave an AUC in data set [5] of 2.47 µM·h. This compound showed a Cmax in data set [5] of 0.95 µM. Moreover, the Tmax in [5] was 3 h. Moreover, the “Observed HFF Toxicity” value with human fibroblast was “T at 100 μM”. Also, the solubility stood at 47 µM (≈ 20.2 µg/mL) in [4] (aqueous buffer, pH 2.0, read-out: Experimental Solubility pH 2.0); 38 µM (≈ 16.4 µg/mL) in data set [4] (setting [6]); 33 µM (≈ 14.2 µg/mL) in data set [4] (pH 7.4, aqueous buffer, read-out: Experimental Solubility pH 7.4).

In the case of `CCOc1ccc2cc(-c3nc(C(C)(C)C)n4ccnc(N)c34)ccc2c1` [Compound 69, 3-tert-butyl-1-(6-ethoxynaphthalen-2-yl)imidazo[1,5-a]pyrazin-8-amine], the EC50 was found to be 198 nM at PfCDPK1 and 132 nM at PfCDPK4. For the same compound, in data set [2], the “Cell Toxicity HL60, % at 10 μM” value is below 30% at 10 μM. The “Cell Toxicity CRL8155, % at 10 μM” value in data set [3] is below 30% at 10 μM. Further, in the data set with human fibroblast, the “Observed HFF Toxicity” value was “T at 25 μM”. The solubility in [4] (setting [6]) is 3 µM (≈ 1.08 µg/mL).

With `Nc1ncnc2c1c(-c1ccc3oc(-c4ccccc4)nc3c1)nn2CC1CCNCC1` [Compound 120], the EC50 at PfCDPK1 turned out to be 25.5 nM; at PfCDPK4, 214 nM. In addition, in the data set with human fibroblast, the “Observed HFF Toxicity” value is on record as “T at 25 μM”. In data set [4] (setting [6]), the solubility is 44 µM (≈ 18.7 µg/mL).
